Legend:
[1] = system: Descurainia sophia; assay: Activity assay of compositions: post-emergence spray treatment of stems and leaves (F), fresh weight inhibition and combined effect (Gowing method); assay type: in vivo; details: 21 d
Description: (§1) The required active ingredient B was purchased from a reagent company or a technical material manufacturer or synthesized by a conventional method. The technical materials were all dissolved with acetone solvents and diluted with aqueous solution of 0.1% Tween-80 emulsifier, which should be used immediately after dilution.
Descurainia sophia weeds were cultivated by a pot culture method. […] Weed seeds with plump and uniform grains were selected, treated with 30% hydrogen peroxide for 10 min, and accelerated to germinate at 15-20° C. in a biochemical incubator (in darkness). The weed seeds that had just germinated were evenly placed on the surface of the soil and then covered with 0.5-1 cm soil according to the sizes of seeds.
The culture was carried out in a controllable sunlight greenhouse at 20-30° C., in natural light, and with relative humidity of 57%-72%.
Each treatment was repeated 4 times. Three pots with 20 weed seeds sowed per pot were treated each time.
The agents were used once in total in the experiment. When at the stage of 1.5-2 leaves, the weeds were thinned out to maintain 10 weeds per pot. Thirty weeds were kept in each treatment, and then continued to be cultured until the 10-leaf stage for further treatment.
The well-cultured test materials were evenly placed on a platform with an area of 0.5 m^2, and foliage spraying was carried out by the 3WP-2000-type walking spray tower at a dosage of 450 kg/ha and a spray pressure of 0.3 MPa. After all the solution was sprayed, the air valve was closed, and 30 seconds later, the door of the spray tower was opened, and the nutritional bowl was taken out. Next, the air valve was opened, and the spray tube was cleaned by spraying 50 ml of water. The test materials were transferred to and routinely cultured in a greenhouse after the treatment.
(§2) A method for investigating absolute numbers was employed. Whole seedlings of survival weeds were cut off along the soil surface with a blade, and the fresh weight of the weeds was weighed using an analytical balance. For dead weeds, the fresh weight thereof was zero.
(§3) The investigation was performed 21 days after the treatment for once in total.
(§4) The theoretical fresh weight inhibition rate of a mixed combination of each treatment was calculated by the Gowing method (E0=X+Y−X*Y/100). Then compared with the measured inhibition rate (E), the type of the combined effect of the combination of the two on weeds was evaluated, which was a synergistic effect when E−E0>10%; an antagonistic effect when E−E0<−10%; an additional effect when −10%≤E−E0≤10%. An optimal ratio was determined according to factors such as the actual control effects, characteristics of herbicides, balance of the formulation, etc. In the formula, X represents the fresh weight inhibition rate of the active ingredient A in a dosage of P; Y represents the fresh weight inhibition rate of the active ingredient B in a dosage of Q. The statistical results are shown in Table 4.

[2] = system: weeds; assay: Activity assay of compositions: soil sealing treatment (S), fresh weight inhibition and combined effect (Gowing method); assay type: in vivo; details: 21 d
Description: as §1
• Weeds were cultivated in a controllable sunlight greenhouse at 20 to 30° C., in natural light, and with relative humidity of 57% to 72%. […] The test soil was quantitatively filled to ¾ of the pot, and then watered from the bottom of the pot to completely wet the soil to saturation. The test weed seeds were accelerated to just germinate, and then evenly and quantitatively broadcasted on the soil surface, covered with 0.5-1 cm soil according to the sizes of the seeds, and ready for use 72 hours after sowing.
Each treatment was repeated 4 times. Four pots with 20 weed seeds sowed per pot were treated each time.
The well-sowed test materials were evenly placed on a platform with an area of 0.5 m^2, and foliage spraying was carried out by the 3WP-2000-type walking spray tower at a dosage of 450 kg/ha and a spray pressure of 0.3 MPa. After all the solution was sprayed, the air valve was closed. And 30 seconds later, the door of the spray tower was opened, and the nutritional bowl was taken out. Next, the air valve was opened, and the spray tube was cleaned by spraying 50 ml of water.
as §2, §3, §4

CCOC(=O)c1nc(-c2ccc(C(F)(F)F)c(OC)c2F)nc(N)c1OC
Control effect of B applied alone in a corresponding dose (%) ([1]; B 6 g a.i./ha): 26.8%
Control effect of B applied alone in a corresponding dose (%) ([1]; B 12 g a.i./ha): 37.7%

C[N+](C)(C)CCO.O=C([O-])COc1ccc(Cl)cc1Cl [2,4-D-Choline]
Control effect of B applied alone in a corresponding dose (%) ([1]; B 150 g a.i./ha): 44.7%
Control effect of B applied alone in a corresponding dose (%) ([1]; B 300 g a.i./ha): 60.0%

Cc1nn(C)cc1C(=O)Oc1c(C(=O)c2ccc(C(F)(F)F)cc2S(C)(=O)=O)c(C)nn1C [Bipyrazone]
Control effect of B applied alone in a corresponding dose (%) ([1]; B 15 g a.i./ha): 55.4%
Control effect of B applied alone in a corresponding dose (%) ([1]; B 30 g a.i./ha): 78.9%

O=C(O)c1nc(Cl)ccc1Cl [Clopyralid]
Control effect of B applied alone in a corresponding dose (%) ([1]; B 30 g a.i./ha): 40.5%
Control effect of B applied alone in a corresponding dose (%) ([1]; B 60 g a.i./ha): 58.8%

COc1c(Cl)ccc(Cl)c1C(=O)O [Dicamba]
Control effect of B applied alone in a corresponding dose (%) ([1]; B 37.5 g a.i./ha): 39.6%
Control effect of B applied alone in a corresponding dose (%) ([1]; B 75 g a.i./ha): 50.8%

c1cc[n+]2c(c1)-c1cccc[n+]1CC2 [Diquat dibromide monohydrate]
Control effect of B applied alone in a corresponding dose (%) ([1]; B 60 g a.i./ha): 42.2%
Control effect of B applied alone in a corresponding dose (%) ([1]; B 120 g a.i./ha): 66.6%

CP(=O)(O)CCC(N)C(=O)O (stereo not drawn) [Glufosinate-ammonium]
Control effect of B applied alone in a corresponding dose (%) ([1]; B 60 g a.i./ha): 50.7%
Control effect of B applied alone in a corresponding dose (%) ([1]; B 120 g a.i./ha): 71.5%

O=C(O)CNCP(=O)(O)O [Glyphosate]
Control effect of B applied alone in a corresponding dose (%) ([1]; B 75 g a.i./ha): 56.6%
Control effect of B applied alone in a corresponding dose (%) ([1]; B 150 g a.i./ha): 75.8%

COC(=O)c1nc(-c2ccc(Cl)c(OC)c2F)cc(N)c1Cl [Halauxifen-methyl]
Control effect of B applied alone in a corresponding dose (%) ([1]; B 3 g a.i./ha): 42.0%
Control effect of B applied alone in a corresponding dose (%) ([1]; B 6 g a.i./ha): 67.4%

C[n+]1ccc(-c2cc[n+](C)cc2)cc1 [Paraquat dichloride]
Control effect of B applied alone in a corresponding dose (%) ([1]; B 30 g a.i./ha): 46.9%
Control effect of B applied alone in a corresponding dose (%) ([1]; B 60 g a.i./ha): 68.0%

C#CCN1C(=O)C(F)(F)Oc2cc(F)c(-n3c(=O)n(C)c(=S)n(C)c3=O)cc21 [Trifludimoxazin]
Control effect of B applied alone in a corresponding dose (%) ([2]; Silene conoidea, B 30 g a.i./ha): 44.4%
Control effect of B applied alone in a corresponding dose (%) ([2]; Silene conoidea, B 60 g a.i./ha): 66.7%

CCCN(CCC)c1c([N+](=O)[O-])cc(C(F)(F)F)cc1[N+](=O)[O-] [Trifluralin]
Control effect of B applied alone in a corresponding dose (%) ([2]; Eclipta prostrata, B 150 g a.i./ha): 45.7%
Control effect of B applied alone in a corresponding dose (%) ([2]; Eclipta prostrata, B 300 g a.i./ha): 67.5%
